# Results reported in ChEMBL document CHEMBL1201862, “PubChem BioAssay data set” (2004).
#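 Protocol summary: plate cells (96-well), add compound at 5 concentrations, incubate 48 h, interpolate endpoints linearly. Here, GI50 denotes the concentration required for 50% inhibition of growth.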 Calls of active or inactive are those of the source. Rule as the data show it: active = GI50 up to about 1.1 µM and inactive = higher.
# Assays:
# Assay in all cases: inhibition of tumour cell growth, NCI panel, 48 h
# 786-0 = test system: 786-0
# A498 = test system: A498
# A549 = test system: A549
# ACHN = test system: ACHN
# BT-549 = test system: BT-549
# CAKI-1 = test system: CAKI-1
# COLO 205 = test system: COLO 205
# DU-145 = test system: DU-145
# EKVX = test system: EKVX
# HCC 2998 = test system: HCC 2998
# HCT-116 = test system: HCT-116
# HCT-15 = test system: HCT-15
# HL-60 = test system: HL-60
# HOP-62 = test system: HOP-62
# HOP-92 = test system: HOP-92
# HT-29 = test system: HT-29
# Hs-578T = test system: Hs-578T
# IGROV-1 = test system: IGROV-1
# KM12 = test system: KM12
# LOX IMVI = test system: LOX IMVI
# M14 = test system: M14
# MCF7 = test system: MCF7
# MDA-MB-231 = test system: MDA-MB-231
# MDA-MB-435 = test system: MDA-MB-435
# MDA-N = test system: MDA-N
# MOLT-4 = test system: MOLT-4
# Malme-3M = test system: Malme-3M
# NCI-H226 = test system: NCI-H226
# NCI-H23 = test system: NCI-H23
# NCI-H460 = test system: NCI-H460
# NCI-H522 = test system: NCI-H522
# NCI/ADR-RES = test system: NCI/ADR-RES
# OVCAR-3 = test system: OVCAR-3
# OVCAR-4 = test system: OVCAR-4
# OVCAR-5 = test system: OVCAR-5
# OVCAR-8 = test system: OVCAR-8
# PC-3 = test system: PC-3
# RPMI-8226 = test system: RPMI-8226
# RXF 393 = test system: RXF 393
# SF-268 = test system: SF-268
# SF-295 = test system: SF-295
# SF-539 = test system: SF-539
# SK-MEL-28 = test system: SK-MEL-28
# SK-MEL-2 = test system: SK-MEL-2
# SK-MEL-5 = test system: SK-MEL-5
# SK-OV-3 = test system: SK-OV-3
# SN12C = test system: SN12C
# SNB-19 = test system: SNB-19
# SNB-75 = test system: SNB-75
# SR = test system: SR
# SW-620 = test system: SW-620
# T47D = test system: T47D
# TK-10 = test system: TK-10
# U-251 = test system: U-251
# UACC-257 = test system: UACC-257
# UACC-62 = test system: UACC-62
# UO-31 = test system: UO-31
# K562 = test system: K562
# CCRF-CEM = test system: CCRF-CEM
smiles,measurement,setting,value
O=c1ccc2ccc(S)cc2o1,GI50,786-0,> 100 µM (inactive)
same,GI50,A498,> 100 µM (inactive)
same,GI50,A549,> 100 µM (inactive)
same,GI50,ACHN,> 100 µM (inactive)
same,GI50,BT-549,> 100 µM (inactive)
same,GI50,CAKI-1,> 100 µM (inactive)
same,GI50,COLO 205,> 100 µM (inactive)
same,GI50,DU-145,> 100 µM (inactive)
same,GI50,EKVX,> 100 µM (inactive)
same,GI50,HCC 2998,> 100 µM (inactive)
same,GI50,HCT-116,> 100 µM (inactive)
same,GI50,HCT-15,> 100 µM
same,GI50,HL-60,> 100 µM (inactive)
same,GI50,HOP-62,> 100 µM (inactive)
same,GI50,HOP-92,> 100 µM (inactive)
same,GI50,HT-29,> 100 µM (inactive)
same,GI50,Hs-578T,> 100 µM (inactive)
same,GI50,IGROV-1,> 100 µM (inactive)
same,GI50,KM12,> 100 µM (inactive)
same,GI50,LOX IMVI,> 100 µM (inactive)
same,GI50,M14,> 100 µM (inactive)
same,GI50,MCF7,> 100 µM (inactive)
same,GI50,MDA-MB-231,> 100 µM (inactive)
same,GI50,MDA-MB-435,> 100 µM (inactive)
same,GI50,MDA-N,> 100 µM (inactive)
same,GI50,MOLT-4,42 µM (inactive)
same,GI50,Malme-3M,> 100 µM (inactive)
same,GI50,NCI-H226,> 100 µM (inactive)
same,GI50,NCI-H23,> 100 µM (inactive)
same,GI50,NCI-H460,> 100 µM (inactive)
same,GI50,NCI-H522,87.3 µM (inactive)
same,GI50,NCI/ADR-RES,> 100 µM (inactive)
same,GI50,OVCAR-3,> 100 µM (inactive)
same,GI50,OVCAR-4,> 100 µM (inactive)
same,GI50,OVCAR-5,> 100 µM (inactive)
same,GI50,OVCAR-8,> 100 µM (inactive)
same,GI50,PC-3,> 100 µM (inactive)
same,GI50,RPMI-8226,99.8 µM (inactive)
same,GI50,RXF 393,> 100 µM (inactive)
same,GI50,SF-268,> 100 µM (inactive)
same,GI50,SF-295,> 100 µM (inactive)
same,GI50,SF-539,> 100 µM (inactive)
same,GI50,SK-MEL-28,> 100 µM (inactive)
same,GI50,SK-MEL-2,> 100 µM (inactive)
same,GI50,SK-MEL-5,> 100 µM (inactive)
same,GI50,SK-OV-3,> 100 µM (inactive)
same,GI50,SN12C,> 100 µM (inactive)
same,GI50,SNB-19,> 100 µM (inactive)
same,GI50,SNB-75,> 100 µM (inactive)
same,GI50,SR,> 100 µM (inactive)
same,GI50,SW-620,> 100 µM (inactive)
same,GI50,T47D,> 100 µM (inactive)
same,GI50,TK-10,92.5 µM (inactive)
same,GI50,U-251,> 100 µM (inactive)
same,GI50,UACC-257,> 100 µM (inactive)
same,GI50,UACC-62,> 100 µM (inactive)
same,GI50,UO-31,> 100 µM (inactive)
Nc1nc(S)c2c(N)n[nH]c2c1C(=O)Nc1ccccc1,GI50,786-0,> 100 µM (inactive)
same,GI50,A498,> 100 µM (inactive)
same,GI50,A549,> 100 µM (inactive)
same,GI50,BT-549,> 100 µM (inactive)
same,GI50,CAKI-1,> 100 µM (inactive)
same,GI50,COLO 205,> 100 µM (inactive)
same,GI50,DU-145,> 100 µM (inactive)
same,GI50,EKVX,26.5 µM (inactive)
same,GI50,HCC 2998,> 100 µM (inactive)
same,GI50,HCT-116,> 100 µM (inactive)
same,GI50,HCT-15,> 100 µM
same,GI50,HL-60,> 100 µM (inactive)
same,GI50,HOP-92,> 100 µM (inactive)
same,GI50,HT-29,> 100 µM (inactive)
same,GI50,Hs-578T,> 100 µM (inactive)
same,GI50,IGROV-1,> 100 µM (inactive)
same,GI50,K562,> 100 µM (inactive)
same,GI50,KM12,65.5 µM (inactive)
same,GI50,LOX IMVI,> 100 µM (inactive)
same,GI50,M14,> 100 µM (inactive)
same,GI50,MCF7,> 100 µM (inactive)
same,GI50,MDA-MB-231,> 100 µM (inactive)
same,GI50,MDA-MB-435,42 µM (inactive)
same,GI50,MDA-N,50.2 µM (inactive)
same,GI50,MOLT-4,> 100 µM (inactive)
same,GI50,Malme-3M,> 100 µM (inactive)
same,GI50,NCI-H226,> 100 µM (inactive)
same,GI50,NCI-H23,> 100 µM (inactive)
same,GI50,NCI-H460,> 100 µM (inactive)
same,GI50,NCI-H522,> 100 µM (inactive)
same,GI50,NCI/ADR-RES,> 100 µM (inactive)
same,GI50,OVCAR-3,> 100 µM (inactive)
same,GI50,OVCAR-4,> 100 µM (inactive)
same,GI50,OVCAR-5,> 100 µM (inactive)
same,GI50,OVCAR-8,> 100 µM (inactive)
same,GI50,PC-3,> 100 µM (inactive)
same,GI50,RPMI-8226,> 100 µM (inactive)
same,GI50,RXF 393,> 100 µM (inactive)
same,GI50,SF-268,> 100 µM (inactive)
same,GI50,SF-539,> 100 µM (inactive)
same,GI50,SK-MEL-28,> 100 µM (inactive)
same,GI50,SK-MEL-2,> 100 µM (inactive)
same,GI50,SK-MEL-5,> 100 µM (inactive)
same,GI50,SK-OV-3,> 100 µM (inactive)
same,GI50,SN12C,> 100 µM (inactive)
same,GI50,SNB-19,> 100 µM (inactive)
same,GI50,SNB-75,> 100 µM (inactive)
same,GI50,SR,13.9 µM (inactive)
same,GI50,SW-620,> 100 µM (inactive)
same,GI50,T47D,> 100 µM (inactive)
same,GI50,TK-10,> 100 µM (inactive)
same,GI50,U-251,> 100 µM (inactive)
same,GI50,UACC-257,> 100 µM (inactive)
same,GI50,UACC-62,> 100 µM (inactive)
same,GI50,UO-31,> 100 µM (inactive)
CC(C)Cc1cc2c(cc1O)CCC1C2CC[C@@]2(C)C1CC[C@@H]2O (stereo partly specified),GI50,786-0,8.13 µM (inactive)
same,GI50,A498,18.3 µM (inactive)
same,GI50,A549,6.84 µM (inactive)
same,GI50,ACHN,6.95 µM (inactive)
same,GI50,BT-549,2.96 µM (inactive)
same,GI50,CAKI-1,16 µM (inactive)
same,GI50,CCRF-CEM,7.91 µM (inactive)
same,GI50,COLO 205,15.2 µM (inactive)
same,GI50,DU-145,9.2 µM (inactive)
same,GI50,EKVX,8.69 µM (inactive)
same,GI50,HCC 2998,13.1 µM (inactive)
same,GI50,HCT-116,6.05 µM (inactive)
same,GI50,HCT-15,7.21 µM
same,GI50,HL-60,1.94 µM (inactive)
same,GI50,HOP-62,11.6 µM (inactive)
same,GI50,HOP-92,10.2 µM (inactive)
same,GI50,HT-29,8.02 µM (inactive)
same,GI50,Hs-578T,6.19 µM (inactive)
same,GI50,IGROV-1,15.1 µM (inactive)
same,GI50,K562,3.83 µM (inactive)
same,GI50,KM12,6.55 µM (inactive)
same,GI50,LOX IMVI,6.22 µM (inactive)
same,GI50,M14,7.87 µM (inactive)
same,GI50,MCF7,8.43 µM (inactive)
same,GI50,MDA-MB-231,7.59 µM (inactive)
same,GI50,MDA-MB-435,11.6 µM (inactive)
same,GI50,MDA-N,7.05 µM (inactive)
same,GI50,MOLT-4,3.5 µM (inactive)
same,GI50,Malme-3M,17.7 µM (inactive)
same,GI50,NCI-H226,4.79 µM (inactive)
same,GI50,NCI-H23,8.39 µM (inactive)
same,GI50,NCI-H460,10.5 µM (inactive)
same,GI50,NCI-H522,6.25 µM (inactive)
same,GI50,NCI/ADR-RES,6.14 µM (inactive)
same,GI50,OVCAR-3,5.57 µM (inactive)
same,GI50,OVCAR-4,8.97 µM (inactive)
same,GI50,OVCAR-5,16.1 µM (inactive)
same,GI50,OVCAR-8,6.35 µM (inactive)
same,GI50,PC-3,6.35 µM (inactive)
same,GI50,RPMI-8226,3.74 µM (inactive)
same,GI50,RXF 393,4.35 µM (inactive)
same,GI50,SF-268,10.8 µM (inactive)
same,GI50,SF-295,4.09 µM (inactive)
same,GI50,SF-539,19.5 µM (inactive)
same,GI50,SK-MEL-28,10.6 µM (inactive)
same,GI50,SK-MEL-2,6.71 µM (inactive)
same,GI50,SK-MEL-5,7.45 µM (inactive)
same,GI50,SK-OV-3,8.17 µM (inactive)
same,GI50,SN12C,7.74 µM (inactive)
same,GI50,SNB-19,7.46 µM (inactive)
same,GI50,SNB-75,5.68 µM (inactive)
same,GI50,SR,3.85 µM (inactive)
same,GI50,SW-620,8.65 µM (inactive)
same,GI50,T47D,5.04 µM (inactive)
same,GI50,TK-10,9.48 µM (inactive)
same,GI50,U-251,10.7 µM (inactive)
same,GI50,UACC-257,14.3 µM (inactive)
same,GI50,UACC-62,7.71 µM (inactive)
same,GI50,UO-31,4.05 µM (inactive)
